The values that follow come from article PMC4264767, “Discovery of Two β-1,2-Mannoside Phosphorylases Showing Different Chain-Length Specificities from Thermoanaerobacter sp. X-514” (PLoS ONE, 2014).

The experiment concerns the target T1, Teth514_1788 (Thermoanaerobacter sp. X514, UniProt B0K2C2).
T1 construct: full-length, no signal peptide predicted, C-terminal His6-tag (pET24a) kept, E. coli Rosetta 2 (DE3); theoretical mass 33,997; homodimer
T1 sequence (B0K2C2 1-296): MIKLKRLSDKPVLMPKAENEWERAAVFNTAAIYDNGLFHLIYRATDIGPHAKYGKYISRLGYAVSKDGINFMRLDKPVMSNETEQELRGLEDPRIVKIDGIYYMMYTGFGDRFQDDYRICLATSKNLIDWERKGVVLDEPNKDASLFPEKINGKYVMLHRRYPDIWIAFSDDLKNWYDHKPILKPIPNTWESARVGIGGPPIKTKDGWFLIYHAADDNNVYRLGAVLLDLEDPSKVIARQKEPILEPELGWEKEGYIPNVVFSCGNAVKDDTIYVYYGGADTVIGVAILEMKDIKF
The experiment is described as follows: colorimetric α-Man1P release, sequential Bi Bi fit. The format is biochemical. The following applies: kinetic constant K iA of substrate A, no inhibition constant; phosphorolysis; Pi 0.10-2.0 mM; 40 mM MES-NaOH pH 6.0; 30°C.
Regarding `OC[C@H]1O[C@@H](O[C@@H]2C(O)O[C@H](CO)[C@@H](O)[C@@H]2O)[C@@H](O)[C@@H](O)[C@@H]1O` (stereo partly drawn) [product 1, β-D-mannopyranosyl-(1→2)-D-mannose], the “K iA” value came to 0.63 ± 0.2 mM. In the case of `OC[C@H]1O[C@@H](O[C@@H]2[C@H](O[C@@H]3C(O)O[C@H](CO)[C@@H](O)[C@@H]3O)O[C@H](CO)[C@@H](O)[C@@H]2O)[C@@H](O)[C@@H](O)[C@@H]1O` (stereo partly drawn) [product 2, β-D-mannopyranosyl-(1→2)-β-D-mannopyranosyl-(1→2)-D-mannose], the “K iA” value came to 2.1 ± 0.5 mM. For the molecule `OC[C@H]1O[C@@H](O[C@@H]2[C@H](O[C@@H]3[C@H](O[C@@H]4C(O)O[C@H](CO)[C@@H](O)[C@@H]4O)O[C@H](CO)[C@@H](O)[C@@H]3O)O[C@H](CO)[C@@H](O)[C@@H]2O)[C@@H](O)[C@@H](O)[C@@H]1O` (stereo partly drawn) [product 3, β-D-mannopyranosyl-(1→2)-β-D-mannopyranosyl-(1→2)-β-D-mannopyranosyl-(1→2)-D-mannose], the “K iA” value worked out at 1.9 ± 0.6 mM.
